Test results: patent publication EP2365091A1, “Method of screening for HtrA protease inhibitors useful for prophylaxis and therapy of a bacterial infection” (Paul-Ehrlich-Institut, priority 2010, dated 2011)
Entries after “also recorded” stand apart in the source; their conditions may differ.

Assays:
[1] = system: β1-integrin; assay: Confocal microscopy of phospho-CagA and β1-integrin co-localization; assay type: cell-based; details: Hp-infected cells, preincubation with 100 µM HHI (Fig. 7C)
Protocol: (§1) For immunofluorescence staining, cells were grown for 24 h on glass coverslips, then fixed (4% paraformaldehyde in PBS), and permeabilized (0.2% Triton X-100 in PBS). Immunostaining was performed using anti-E-Cadherin (cl. 36 detects the intracellular domain, BD Biosciences), anti-E-Cadherin (HecD-1 detects the extracellular domain), ZO-1 (Invitrogen), anti-CagA (Immunological and Biochemical Testsystems GmbH, Reutlingen, Germany), anti-β1-integrin and anti-Hp. Secondary antibodies were labeled with Alexa-488 or Alexa-546 (Invitrogen). Filamentous actin was detected with Alexa Fluor 546-conjugated phalloidin (Invitrogen). For nuclei staining, 4',6-diamin-2-phenylin-dol-dihydrochloride (DAPI, Roche) was used as recommended by the manufacturer's instructions. Samples were analyzed by confocal laser scanning microscopy using a Zeiss LSM 510 Meta confocal microscope. Images were further processed using Corel Photopaint.

[2] = system: interleukin-8 (IL-8); assay: Interleukin-8 (IL-8) ELISA; assay type: cell-based, human; details: MKN-28, Hp 8 h, 16 h and 36 h, 100 µM HHI (Fig. 12B)
Protocol: Determination of IL-8 release was performed by applying a commercially available IL-8 specific ELISA assay system (Bender Medsystems, eBioscience Inc., San Diegeo, CA, USA). In brief, MKN-28 cells were incubated with Hp 8-36 h. Cell culture supernatants were collected, centrifuged, and stored at -80°C for subsequent IL-8 quantification. The IL-8 release was determined as recommend by the manufacturer's instructions.

[3] = system: MKN-28 cells; assay: Cell aggregation assay; assay type: cell-based, human; details: 50 ng/µl HtrAwt plus 100 µM HHI (Fig. 4E)
Protocol: For cell aggregation assays, 2 x 10^5 cells were trypsinized and seeded into BSA-coated 24-well plates, each well containing 500 µl of cell aggregation buffer (10 mM HEPES (pH 7.4), 150 mM NaCl, 0.7 mM CaCl2, 1% BSA, 0.01% trypsin). After stimulation at 37°C for 30 min on a rocking platform, cells were fixed in 500 µl of 4% paraformaldehyde for 20 min and observed using an inverse phase-contrast microscope.

[4] = system: Hp; assay: Hp translocation through the intercellular space of confluent monolayers (confocal microscopy, filter CFU); assay type: cell-based, Helicobacter pylori
Protocol: (§2) Hp strains Hp26695 and P12 were cultured on agar plates containing 10% horse serum under microaerophilic conditions at 37°C for 48 hours. For infection, bacteria were harvested in PBS Dulbecco's medium, pH 7.4, added to the host cells at a multiplicity of infection (MOI) of 50 or 100 for the indicated time periods and monitored using an inverse phase-contrast microscope (model TS 100, INTAS). To quantify bacteria translocating through cellular monolayers, MKN-28 cells were grown to confluence on filters prior to infection with Hp for 48 h. Translocating Hp were cultured and CFU were counted. All experiments were repeated 3-4 times.
as §1, with “For nuclei staining, 4',6-diamin-2-phenylin-dol-dihydrochloride (DAPI, Roche) was used as recommended by the manufacturer's instructions.” left out, “Images were further processed using Corel Photopaint.” left out

[5] = biological target: T1, MMP-7 (Homo sapiens, UniProt P09237); assay: In vitro cleavage of recombinant E-Cadherin by MMP-7 (Western blot); assay type: biochemical; details: 5 ng/µl MMP-7, 16 h, 100 µM HHI (Fig. 11E)
T1 sequence (P09237 95-267): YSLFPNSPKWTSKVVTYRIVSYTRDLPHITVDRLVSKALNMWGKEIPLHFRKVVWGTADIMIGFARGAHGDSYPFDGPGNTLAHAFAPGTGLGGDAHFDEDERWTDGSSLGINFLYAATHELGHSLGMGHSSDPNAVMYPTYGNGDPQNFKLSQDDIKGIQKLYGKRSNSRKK
Protocol: (§3) For in vitro cleavage studies, recombinant E-Cadherin, EGFR and JAM chimera, IgA or Casein, (R&D Systems, Wiesbaden, Germany) were incubated with HtrA^wt, HtrA^S205A or MMP7 in 50 mM HEPES (pH 7.4) at 37°C for 16 h. Where indicated, HHI or MMP inhibitor II were added. Reactions were stopped by boiling in Laemmli buffer, followed by 8% SDS-PAGE and Western blotting.

[6] = system: HtrA; assay: In vitro cleavage of recombinant E-Cadherin by HtrA (Western blot); assay type: biochemical, Helicobacter pylori; details: 100 ng recombinant E-Cadherin, 100 ng/µl HtrA, 16 h
Protocol: as §3

[7] = system: TCF/LEF1; assay: TOPflash/FOPflash luciferase reporter gene experiment; assay type: cell-based, human; details: MKN-28, Hp 24 h, 50 µM HHI (Fig. 5C)
Protocol: MKN-28 cells were cultured in 24-well plates and grown to 60% confluence. Cells were transfected with 100 ng TOPflash or 100 ng FOPflash (Upstate, Millipore, Bad Schwalbach/Taunus, Germany) and 4 ng phRL Null. As a positive control, cells were co-transfected with 100 ng β-Catenin (β-Cat^S33A) or empty vector for 12 h using Gene Juice transfection reagent (Novagen, Merck, Darmstadt, Germany) as recommended by the manufacturer's instructions. Eighteen hours after transfection, cells were infected with Hp at an MOI of 50, or left untreated. In further approaches, cells were incubated with 50 ng/µl HtrA^wt or HtrA^S205A mutant. After 24 h, cells were harvested in 100 µl reporter lysis buffer (Promega) and luciferase activity was determined in a dual channel luminometer. Results were normalized for transfection efficiency of cotransfected renilla luciferase plasmid.

[8] = system: MCF-7; assay: In-situ immunofluorescence of E-Cadherin in Hp-infected cells; assay type: cell-based, human; details: MCF-7, Hp 16 h, 100 µM HHI (Fig. 5A)
Protocol: as §1

[9] = system: MKN-28 cells; assay: Hp-induced ectopic E-Cadherin shedding in infected cells (Western blot of supernatants and lysates); assay type: cell-based, human; details: 100 µM HHI
Protocol: The human gastric adenocarcinoma cell line MKN-28 was grown in RPMI1640 medium (Biochrom, Berlin, Germany) and human breast cancer cells (MCF-7) in DMEM medium (Biochrom) containing 4 mM glutamine (Invitrogen, Karlsruhe, Germany]), and 10% FCS (Biowest, Nuaillé, France) in a humidified 5% CO2 (MKN-28) or 10% CO2 (MCF-7) atmosphere at 37°C. Cells were seeded in tissue culture plates 48 hours before infection and grown to confluence. 1-2 h hours prior to infection, medium was replaced by fresh serum-free media. Where indicated, cells were incubated with indicated concentrations of HHI or MMP inhibitor II (blocks MMP1, MMP3, MMP7 and MMP9) (Calbiochem, Merck , Darmstadt, Germany).
as §2, with “times. […]” for “times.”

[10] = system: Hp; assay: Hp adherence and viability, colony forming units after infection of MKN-28 cells; assay type: cell-based, Helicobacter pylori
Protocol: For secretome analysis, Hp was grown in protein-free liquid brain heart infusion (BHI) medium (Merck) supplemented with β-cyclodextrin for 48 hours (Bumann et al., 2002). Supernatants of Hp BHI cultures were sterilized by filtration. Lysates of Hp were obtained by sonication in PBS containing 0.1% Triton X-100. To quantify colony forming units (CFU) of Hp, cells were infected with Hp in the presence or absence of HHI. After 16-24 h cells were washed twice with PBS, harvested in BHI supplemented with β-cyclodextrin and seeded on Hp plates. After 72 h, colonies were counted.

[11] = system: MKN-28 cells; assay: Co-immunoprecipitation of β-Catenin and p120ctn in Hp-infected cells; assay type: cell-based, human; details: Hp 6 h, 100 µM HHI (Fig. 5B)
Protocol: Interaction between β-Catenin and p120^ctn was analyzed by co-immunoprecipitation studies. Cells were lysed and β-Catenin and p120^ctn were immunoprecipitated from cell lysates. Immobilized protein complexes were washed three times with lysis buffer, boiled in Laemmli buffer, separated by SDS-PAGE, and blotted on membranes.

[12] = system: CagA; assay: CagA injection and phosphorylation in infected monolayers (Western blot); assay type: cell-based, Helicobacter pylori; details: MKN-28 monolayers
Protocol: Cells were harvested in lysis buffer (20 mM Tris-HCl, pH 7.5, 1 mM ETDA, 100 mM NaCl, 1% Triton X-100, 0.5 % sodium deoxycholate, 0.1% SDS, 1 x complete protease inhibitors (Roche, Basel, Switzerland), 1 mM Na3VO4, 1 mM sodium molybdate, 20 mM NaF, 10 mM sodium pyrophosphate, 20 mM β-glycerophosphate) and separated by SDS-PAGE. Proteins were transferred onto PVDF membranes, blocked with RotiBlock (Roth, Karlsruhe, Germany), and probed with anti-E-Cadherin cl. 36 (detects intracellular E-Cadherin domain). To detect CTF1 and CTF2 by Western blots an anti-E-Cadherin polyclonal antibody from Cell Signaling Technologies , Danvers, MA, USA] was used. Quantification of CTF and NTF fragments was performed using the Fusion FX-7 image analyzer and Bio-1D analysis software (Vilber Lourmat Deutschland GmbH, Eberhardzell, Germany). Monoclonal antibodies HecD1 and H-108 against the extracellular domain of E-Cadherin (NTF) were obtained from Calbiochem, Merck, Darmstadt, Germany and Santa Cruz, Santa Cruz, CA, USA, respectively. Expression of Occludin, ZO-1 (Invitrogen), JAM1, β-Catenin, p120^ctn (BD Biosciences, New Jersey, USA), ADAM10, EGFR (Santa Cruz), GAPDH (Abcam, Cambridge, UK), β-Actin (Sigma), CagA (Aalto Bio Reagents Ltd., Dublin, Ireland) was analyzed using specific antibodies. […]

**Q.** Which “co-localization of phospho-CagA with β1-integrin at the basolateral membrane” value [1] does the source give for `CCOc1ccc2nc(NC(=O)CSc3nnc(-c4ccc(S(=O)(=O)N5CCCC5)cc4)o3)sc2c1` [HHI] here?
**A.** efficiently prevented

**Q.** And the “T4SS-dependent secretion of interleukin-8 (IL-8) of Hp-infected cells” value [2]?
**A.** unaffected

**Q.** And the “E-Cadherin-mediated cell aggregation of HtrAwt-treated cells” value [3]?
**A.** did not form aggregates, unless HHI was also added

**Q.** And the “Hp invasion through the intercellular space of confluent MKN-28 cells growing on filters” value ([4]; 100 µM HHI, Hp 48 h, CFU counted, p = 0.01 (Fig. 6B))?
**A.** significantly inhibited

**Q.** And the “number of translocating bacteria in intercellular spaces” value ([4]; MKN-28 monolayers, confocal microscopy, 48 h, 100 µM HHI (Fig. 6A))?
**A.** greatly reduced

**Q.** And the “MMP7-mediated E-Cadherin cleavage activity” value [5]?
**A.** did not affect

**Q.** What about the “HHI concentration sufficient to partly block HtrA-mediated E-Cadherin cleavage” value [6] of the same molecule?
**A.** 10 µM

**Q.** And the “HHI concentration that blocked cleavage completely” value [6]?
**A.** 30 µM

**Q.** What about the “Hp-induced luciferase activity (TOP/FOP)” value [7] of the same molecule?
**A.** unaffected

**Q.** What about the “Hp-induced loss of E-Cadherin-dependent intercellular adhesion” value [8] of the same molecule?
**A.** blocks; also recorded: efficiently blocked

**Q.** What about the “secretion of HtrA into the infected cell supernatant” value ([9]; 16 and 24 h (Fig. 4D)) of the same molecule?
**A.** could be excluded

**Q.** And the “Hp-induced ectopic E-Cadherin cleavage in infected MKN-28 cells” value ([9]; Hp infection 16 and 24 h (Fig. 4D))?
**A.** clearly inhibited

**Q.** And the “Hp adherence and Hp viability” value ([10]; 100 µM HHI (Fig. 11C))?
**A.** could be excluded; also recorded: not affecting

**Q.** What about the “relative CFU colony forming units (CFU)” value ([10]; 100 µM HHI, 16 h and 24 h infection, colonies counted after 72 h (Fig. 11C)) of the same molecule?
**A.** no significant difference

**Q.** And the “loss of β-Catenin in the precipitated p120ctn immunocomplex upon Hp infection” value [11]?
**A.** not reverted

**Q.** What about the “amount of total CagA” value ([12]; 100 µM HHI preincubation (Fig. 7A)) of the same molecule?
**A.** not altered

**Q.** What about the “injected phospho-CagA in Hp-infected cells” value ([12]; 100 µM HHI preincubation, 16 h and 24 h (Fig. 7A)) of the same molecule?
**A.** decreased
